Experimental data: ChEMBL document CHEMBL1145817, “Conformationally constrained analogues of diacylglycerol. 19. Synthesis and protein kinase C binding affinity of diacylglycerol lactones bearing an N-hydroxylamide side chain” (J Med Chem, 2003)

Biological target: Protein kinase C alpha type (Homo sapiens, UniProt P17252)
Experiment: Binding affinity for Protein kinase C alpha C1a or C1b domain

Ki [µM]	SMILES
6.79	CC(C)CC(C/C=C1\CC(CO)(CN(O)C(=O)C(C)(C)C)OC1=O)CC(C)C (configuration not stated)
6.98	CC(C)CC(C/C=C1/CC(CO)(CN(O)C(=O)C(C)(C)C)OC1=O)CC(C)C (configuration not stated)
